Experimental data: publication PMC12473319, “TDMQ20 as A Drug Candidate for Wilson’s Disease: Comparison with D-Penicillamine, Trientine, and Tetrathiomolybdate In Vitro and In Mice” (Pharmaceutics, 2025)
pIC50: −log10 of the molar value. Read-outs that look alike come from different tables or passages of the source.

Target: T1, Cu,Zn-SOD (Cu,Zn-superoxide dismutase) (Bos taurus, UniProt P00442)
T1 construct: gene SOD1
Test: SOD kit (xanthine/xanthine oxidase, WST-1 formazan at […] nm) after […] h pre-incubation with chelator
Format: biochemical

T1 sequence (P00442 2-152): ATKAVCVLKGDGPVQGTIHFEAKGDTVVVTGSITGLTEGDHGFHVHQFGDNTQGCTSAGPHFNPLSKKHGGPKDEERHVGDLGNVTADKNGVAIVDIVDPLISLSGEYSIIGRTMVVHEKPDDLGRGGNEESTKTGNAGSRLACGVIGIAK

pIC50 (read-out: IC50)	Compound	pIC50
4.00 to 4.30	CC(C)(S)[C@@H](N)C(=O)O [DPA, 3-mercapto-D-valine]	
	[S]=[Mo](=[S])([SH])[SH] [bcTTM, Bis-choline-tetrathiomolybdate]	> 6.70
